“Also recorded” adds a separate entry of the source.
Experiments:
[1] = complexation of lead on ion-loaded thin layer chromatography plates (1/Rf); assay type: binding; conditions: Polygram Ionex 25-SA-Na plates loaded with Pb^2+, developed four times in water; FIG. 4
From the text: (§1) To evaluate the complexation, ion-loaded thin layer chromatography plates which allow rapid evaluation of the complexation of these ions by the species to be evaluated are used. In the present case, plates of Polygram Ionex 25-SA-Na type (Macherey-Nagel, ref: 80613) loaded with various counterions were used. In each test, the compound to be tested is introduced onto the plate, and if the compound complexes the ions, they will be retained on the plate. The plates are then developed four times in water, because of the small amount of migration of the cyclodextrin derivatives, and then the degree of complexation is determined through the value 1/Rf, where Rf represents the ratio: (distance covered by the cyclodextrin derivative/distance covered by the solvent).
(§2) Measurements of degree of complexation of lead (in the form Pb^2+) and of erbium in the form (Er^3+) were carried out for the following three compounds: • the base cyclodextrin mono-2-O-carboxyméthyle-per-(3,6-anhydro)cyclomaltohexaose (designated (1) in FIG. 4); • a cyclodextrin in accordance with the invention, prepared in the context of Example 1 (denoted (2) in FIG. 4); • a cyclodextrin in accordance with the invention, prepared in the context of Example 2 (denoted (3) in FIG. 4).

[2] = complexation of erbium on ion-loaded thin layer chromatography plates (1/Rf); assay type: binding; conditions: Polygram Ionex 25-SA-Na plates loaded with Er^3+, developed four times in water; FIG. 4
From the text: as §1, §2

Substance	lead-complexation properties (degree of complexation, 1/Rf) [1]	erbium-complexation properties (degree of complexation, 1/Rf) [2]
[(mono-2-O-methyl(mono-ε-amidopoly-L-Lysine)]-per-(3,6-anhydro)-α-cyclodextrin [Example 2]	particularly advantageous	particularly advantageous; also recorded: complex erbium
mono-2-O-carboxymethyl-per-(3,6-anhydro)cyclomaltohexaose [noncoupled per(3,6-anhydro)cyclodextrin, reference compound]		does not complex erbium

Reference: patent publication US20070148090A1, “Per (3,6-anhydro) cyclodextrin derivatives, preparation thereof and use thereof for transporting metal elements to biological targets or for decontaminating biological targets of fluids” (priority 2003, published 2007)
